According to PubChem BioAssay AID296 (DTP/NCI, 2004):
Several values for one entry are separate records, joined by “and”; a condition that tells them apart may be missing. Identical values can stand only once. Records with an inconclusive call do not appear.

Tested on: MX-1 breast xenograft, nude mice, tumor weight T/C
Test: NCI In Vivo Anticancer Drug Screen. Data for tumor model Human Mammary Carcinoma MX-1 Xenograft (intrarenal inoculation) in NU/NU Swiss (nude) mice
Details: endpoint: mean tumor weight change, higher = larger tumour
In short: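 Compound dosed to mice with transplantable tumor; vehicle group as control. Endpoint survival or tumour size, reported as T/C.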

[1] = dose: 300.0 mg/kg/injection, schedule: Q04DX003 (sc), vehicle: suspension in saline
[2] = dose: 150.0 mg/kg/injection, schedule: Q04DX003 (sc), vehicle: Klucel (hydroxypropylcellulose) (HPC)
[3] = dose: 1200.0 mg/kg/injection, schedule: Q04DX003 (sc), vehicle: Klucel (hydroxypropylcellulose) (HPC)
[4] = dose: 75.0 mg/kg/injection, schedule: Q04DX003 (ip), vehicle: Klucel (hydroxypropylcellulose) (HPC)
[5] = dose: 150.0 mg/kg/injection, schedule: Q04DX003 (ip), vehicle: Klucel (hydroxypropylcellulose) (HPC)
[6] = dose: 37.5 mg/kg/injection, schedule: Q04DX003 (sc), vehicle: Klucel (hydroxypropylcellulose) (HPC)
[7] = dose: 75.0 mg/kg/injection, schedule: Q04DX003 (sc), vehicle: Klucel (hydroxypropylcellulose) (HPC)
[8] = dose: 600.0 mg/kg/injection, schedule: Q04DX003 (sc), vehicle: saline with Tween-80
[9] = dose: 1200.0 mg/kg/injection, schedule: Q04DX003 (sc), vehicle: saline with Tween-80
[10] = dose: 25.0 mg/kg/injection, schedule: Q01DX010 (sc), vehicle: Klucel (hydroxypropylcellulose) (HPC)
[11] = dose: 50.0 mg/kg/injection, schedule: Q01DX010 (sc), vehicle: Klucel (hydroxypropylcellulose) (HPC)
[12] = dose: 150.0 mg/kg/injection, schedule: Q04DX003 (sc), vehicle: saline with Tween-80

## N=C(N)SCc1cccc2c(=O)cc(-c3ccccc3)oc12
[1]
  T/C: 110 % of control

## COC(=O)Nc1nc2ccc(SC)cc2c(=O)[nH]1
[2]
  T/C: 83 % of control
dose: 300.0 mg/kg/injection, schedule: Q04DX003 (sc), vehicle: Klucel (hydroxypropylcellulose) (HPC)
  T/C: 116 % of control
dose: 600.0 mg/kg/injection, schedule: Q04DX003 (sc), vehicle: Klucel (hydroxypropylcellulose) (HPC)
  T/C: 92 % of control
[3]
  T/C: 86 % of control

## COCC(O)Cn1ccnc1[N+](=O)[O-] (stereo unspecified)
[1]
  T/C: 202 % of control
dose: 600.0 mg/kg/injection, schedule: Q04DX003 (sc), vehicle: suspension in saline
  T/C: 95 % of control
dose: 1200.0 mg/kg/injection, schedule: Q04DX003 (sc), vehicle: suspension in saline
  T/C: 108 % of control

## O=C(NC(Cc1ccc(I)cc1)C(=O)O)c1ccc(Br)cc1 (stereo unspecified)
dose: 75.0 mg/kg/injection, schedule: Q04DX003 (ip), vehicle: sodium bicarbonate
  T/C: -67 % of control

## Cc1cc(N(CC(C)Br)CC(C)Br)ccc1N=Nc1ccccc1C(=O)O (stereo unspecified)
dose: 3.13 mg/kg/injection, schedule: Q01DX010 (sc), vehicle: saline with Tween-80
  T/C: 10 % of control and 12 % of control
dose: 6.25 mg/kg/injection, schedule: Q01DX010 (sc), vehicle: saline with Tween-80
  T/C: -46 % of control
dose: 12.5 mg/kg/injection, schedule: Q01DX010 (sc), vehicle: saline with Tween-80
  T/C: -79 % of control

## COc1nc(C(Cl)(Cl)Cl)c(Cl)c(OC)c1Cl
[4]
  T/C: 33 % of control
[5]
  T/C: -28 % of control
dose: 150.0 mg/kg/injection, schedule: Q04DX003 (oral), vehicle: Klucel (hydroxypropylcellulose) (HPC)
  T/C: -33 % of control
dose: 300.0 mg/kg/injection, schedule: Q04DX003 (ip), vehicle: Klucel (hydroxypropylcellulose) (HPC)
  T/C: 10 % of control
dose: 300.0 mg/kg/injection, schedule: Q04DX003 (oral), vehicle: Klucel (hydroxypropylcellulose) (HPC)
  T/C: -15 % of control

## CN(C)c1ccc2c(N(C)C)cc(N(C)C)nc2c1
dose: 18.75 mg/kg/injection, schedule: Q04DX003 (sc), vehicle: Klucel (hydroxypropylcellulose) (HPC)
  T/C: 78 % of control
[6]
  T/C: 84 % of control
[7]
  T/C: 82 % of control

## NCC1CCC(C(=O)O)CC1 (stereo unspecified)
[8]
  T/C: 115 % of control
[9]
  T/C: 76 % of control
dose: 2400.0 mg/kg/injection, schedule: Q04DX003 (sc), vehicle: saline with Tween-80
  T/C: 155 % of control

## CC(=O)OCN(C)C=O
dose: 300.0 mg/kg/injection, schedule: Q01DX010 (sc), vehicle: water
  T/C: 100 % of control
dose: 600.0 mg/kg/injection, schedule: Q01DX010 (sc), vehicle: water
  T/C: 54 % of control
dose: 1200.0 mg/kg/injection, schedule: Q01DX010 (sc), vehicle: water
  T/C: 18 % of control
dose: 2400.0 mg/kg/injection, schedule: Q01DX010 (sc), vehicle: water
  T/C: -8 % of control

## C/C(=C\c1ccccc1)[N+](=O)[O-]
[10]
  T/C: 38 % of control
[11]
  T/C: 88 % of control
dose: 100.0 mg/kg/injection, schedule: Q01DX010 (sc), vehicle: Klucel (hydroxypropylcellulose) (HPC)
  T/C: 45 % of control and 53 % of control
dose: 200.0 mg/kg/injection, schedule: Q01DX010 (sc), vehicle: Klucel (hydroxypropylcellulose) (HPC)
  T/C: 55 % of control and 59 % of control

## CC/C(=C(/CC)c1ccc(O)cc1)c1ccc(O)cc1
dose: 75.0 mg/kg/injection, schedule: Q04DX003 (sc), vehicle: saline with Tween-80
  T/C: 66 % of control
[12]
  T/C: 47 % of control
dose: 300.0 mg/kg/injection, schedule: Q04DX003 (sc), vehicle: saline with Tween-80
  T/C: 48 % of control
[8]
  T/C: 55 % of control

## O=S1(=O)CS(=O)(=O)OCCO1
[6]
  T/C: 25 % of control
[7]
  T/C: 42 % of control
[2]
  T/C: 7 % of control

## CCOC(OCC)C(=O)OCC(=O)[C@]1(O)Cc2c(O)c3c(c(O)c2[C@@H](OC2CC(N)C(O)C(C)O2)C1)C(=O)c1c(OC)cccc1C3=O (stereo partly specified)
dose: 4.0 mg/kg/injection, schedule: Q01DX010 (sc), vehicle: water
  T/C: 27 % of control and 44 % of control

## COc1cccc2c1C(=O)c1c(O)c3c(c(O)c1C2=O)C[C@@](O)(C(=O)CO)C[C@@H]3OC1CC(N)C(OC)C(C)O1 (stereo partly specified)
dose: 1.5 mg/kg/injection, schedule: Q01DX010 (sc), vehicle: saline
  T/C: 54 % of control

## CNNCc1ccc(C(=O)NC(C)C)cc1
dose: 100.0 mg/kg/injection, schedule: Q01DX010 (sc), vehicle: saline
  T/C: 57 % of control and 69 % of control
dose: 400.0 mg/kg/injection, schedule: Q01DX010 (sc), vehicle: saline
  T/C: 7 % of control

## NC(=O)c1[nH]nc(C2OC(CO)C(O)C2O)c1O (stereo unspecified)
dose: 2.5 mg/kg/injection, schedule: Q04DX003 (sc), vehicle: saline
  T/C: 111 % of control
dose: 20.0 mg/kg/injection, schedule: Q04DX003 (sc), vehicle: saline
  T/C: 68 % of control

## CC(=O)c1cccc(NC2C(N)C(NC(=O)N(C)C)(C(C)O)C(C)(O)C2(O)COC(=O)c2c(C)cccc2O)c1 (stereo unspecified)
dose: 6.25 mg/kg/injection, schedule: Q04DX003 (ip), vehicle: suspension in saline
  T/C: 62 % of control
dose: 12.5 mg/kg/injection, schedule: Q04DX003 (ip), vehicle: suspension in saline
  T/C: 85 % of control
dose: 25.0 mg/kg/injection, schedule: Q04DX003 (ip), vehicle: suspension in saline
  T/C: 34 % of control

## O=C(Nc1nncs1)c1ccncc1
[12]
  T/C: 101 % of control
[8]
  T/C: 109 % of control
[9]
  T/C: 65 % of control

## c1ccc2c(NCCCCCCCCNc3c4ccccc4nc4ccccc34)c3ccccc3nc2c1
dose: 10.0 mg/kg/injection, schedule: Q01DX010 (sc), vehicle: Klucel (hydroxypropylcellulose) (HPC)
  T/C: 93 % of control
dose: 20.0 mg/kg/injection, schedule: Q01DX010 (sc), vehicle: Klucel (hydroxypropylcellulose) (HPC)
  T/C: 16 % of control
dose: 40.0 mg/kg/injection, schedule: Q01DX010 (sc), vehicle: Klucel (hydroxypropylcellulose) (HPC)
  T/C: 93 % of control
dose: 80.0 mg/kg/injection, schedule: Q01DX010 (sc), vehicle: Klucel (hydroxypropylcellulose) (HPC)
  T/C: 58 % of control

## Cc1cn(C2CC(O)C(CO)O2)c(=O)[nH]c1=O (stereo unspecified)
dose: 800.0 mg/kg/injection, schedule: Q04DX003 (sc), vehicle: saline
  T/C: 105 % of control
dose: 1600.0 mg/kg/injection, schedule: Q04DX003 (sc), vehicle: saline
  T/C: 89 % of control
dose: 3200.0 mg/kg/injection, schedule: Q04DX003 (sc), vehicle: saline
  T/C: 50 % of control
dose: 6400.0 mg/kg/injection, schedule: Q04DX003 (sc), vehicle: saline
  T/C: 62 % of control

## c1cc2n(n1)CCN2
dose: 50.0 mg/kg/injection, schedule: Q01DX010 (sc), vehicle: saline
  T/C: 75 % of control and 77 % of control

## COc1cc(NCCCCCCCNC(C)C)c2nccc(C)c2c1
dose: 37.5 mg/kg/injection, schedule: Q04DX003 (sc), vehicle: saline
  T/C: 93 % of control
dose: 75.0 mg/kg/injection, schedule: Q04DX003 (sc), vehicle: saline
  T/C: 76 % of control
dose: 150.0 mg/kg/injection, schedule: Q04DX003 (sc), vehicle: saline
  T/C: 66 % of control

## CCCCCNc1ncnc2c(C)[nH]nc12
[4]
  T/C: 80 % of control
[5]
  T/C: 112 % of control

## CNC(=O)OCc1c(COC(=O)NC)c(-c2ccc(Cl)c(Cl)c2)n2c1Cc1ccccc1C2
dose: 300.0 mg/kg/injection, schedule: Q04DX003 (sc), vehicle: distilled water + Tween-80
  T/C: 64 % of control
dose: 600.0 mg/kg/injection, schedule: Q04DX003 (sc), vehicle: distilled water + Tween-80
  T/C: 70 % of control
dose: 1200.0 mg/kg/injection, schedule: Q04DX003 (sc), vehicle: distilled water + Tween-80
  T/C: 103 % of control
dose: 2400.0 mg/kg/injection, schedule: Q04DX003 (sc), vehicle: distilled water + Tween-80
  T/C: 36 % of control

## CCOC(=O)Nc1cc2c(c(N)n1)N=C(CN(C)c1ccccc1)CN2
[10]
  T/C: 82 % of control
[11]
  T/C: 70 % of control

## [I][Hg][CH2]C1OCCOC1[CH2][Hg][I] (stereo unspecified)
[3]
  T/C: 77 % of control
dose: 2400.0 mg/kg/injection, schedule: Q04DX003 (sc), vehicle: Klucel (hydroxypropylcellulose) (HPC)
  T/C: 98 % of control

## O=c1[nH]c(=O)n(C2CC(O)C(CO)O2)cc1C(F)(F)F (stereo unspecified)
dose: 300.0 mg/kg/injection, schedule: Q04DX003 (sc), vehicle: saline
  T/C: 77 % of control
dose: 600.0 mg/kg/injection, schedule: Q04DX003 (sc), vehicle: saline
  T/C: 72 % of control
dose: 1200.0 mg/kg/injection, schedule: Q04DX003 (sc), vehicle: saline
  T/C: 43 % of control
dose: 2400.0 mg/kg/injection, schedule: Q04DX003 (sc), vehicle: saline
  T/C: 29 % of control
